Literature values, collected in patent US20230310417A1, “INJECTABLE ARIPIPRAZOLE FORMULATION” (CIPLA LIMITED, priority 2020, published 2023).

Details: room temperature

- aqueous solubility: < 1 µg/mL
SMILES: O=C1CCc2ccc(OCCCCN3CCN(c4cccc(Cl)c4Cl)CC3)cc2N1 [Aripiprazole]
